The source of these data is article PMC4459817, “Vasculotide reduces endothelial permeability and tumor cell extravasation in the absence of binding to or agonistic activation of Tie2” (EMBO Molecular Medicine, 2015).

The test system of assay [1] is advanced metastatic breast cancer. To be noted: ref Yardley et al, 2012; cited from earlier work. An excerpt:
Another possible explanation for the apparent insensitivity of MBC to TKI treatments is that the growth of secondary tumors post-metastatic colonization of the lung/liver may still be susceptible to the intended anti-angiogenic inhibition, but that these growth-inhibitory benefits may be diluted by concurrent unintended drug effects that promote tumor spread.

Assay [2] deals with LM2-4luc experimental metastasis. To be noted: SU prior to IV inoculation of LM2-4luc; ref Ebos et al, 2009; cited from earlier work. The source says:
Here, we tested whether concurrent VT therapy can be used to reverse this pro-metastatic potential of SU in the same model. LM2-4^luc is a metastatically aggressive luciferase-tagged derivative of the MDA-MB-231 cell line that was derived through serial in vivo selection ...

The test system of assay [3] is SN12luc lung metastases in YFP-SCID mice. Briefly: experimental SN12luc lung metastasis model (IV). It is filed as in vivo, human SN12luc cells in YFP-SCID mice. To be noted: VT 250 ng/2 days or 400 ng/2 days; Fig3E–G; 50DPI imaging. The source says: Figure 3 Vasculotide has no effect on experimental liver metastases from a colon cancer cell line (HT29^luc), nor on experimental lung metastases from a renal cancer cell line (SN12^luc) • A–D An experiment where HT29^luc tumor cells were implanted intravenously into YFP-SCID mice. (A) Kaplan–Meier survival analysis. (B) Quantification of total metastatic burden in the liver and lymphatics, at 35 days post-implantation (DPI), from whole-body bioluminescent imaging (C). (D) Photograph of typical liver metastases. • E–G An experiment where SN12^luc tumor cells were implanted intravenously into YFP-SCID mice. (E) Kaplan–Meier survival analysis. (F) Quantification of total metastatic burden at 50DPI, mostly within the lungs, from whole-body bioluminescent imaging (G). […]
For in vivo BI: Mice were injected intraperitoneally with 150mg/kg luciferin (Promega) 10 minutes prior to and anesthetized with isofluorane just before luminescent pseudocolor imaging (uniform settings: CCD camera locked at -105 °C, exposure=60s, f/1, subject size=1.5cm, bin=8, FOV=23.2cm, full image correction) using the IVIS 200 Imaging System (Caliper/PerkinElmer). Using the Living Image software (v2.50.1, Xenogen), weekly images were analyzed under uniform color range on grayscale photographic overlay. […]

Assay [4] relates to lung vascular hyperpermeability in endotoxemic mice. To be noted: ref David et al, 2011; cited from earlier work. An excerpt: (§1) For therapeutic use, recombinant variants or mimetics of multimeric Ang1 have been engineered, including Ang1* and Ang-F1-Fc-F1/Bow-Ang1 (Davis et al, [2003]; Daly et al, [2013]), MAT-Ang1 and COMP-Ang1 (Cho et al, [2004]; Koh, [2013]). […] The development of VT was inspired by a 2004 paper, where several heptapeptides—with no sequence homology to Ang1—were identified to have Tie2-binding potential through an ...

The test system of another assay is Tie2. Particulars: PEGylated VT, earlier reports; ref not printed at the statement; cited from earlier work.
From the text: as §1

Assay [5] concerns mouse model of skin toxicity from cancer radiotherapy. Particulars: ref Korpela et al, 2014; cited from earlier work.
From the text: as §1

For assay [6], the system named is in vivo model of abdominal sepsis. Particulars: ref Kumpers et al, 2011; cited from earlier work.
From the text: as §1

Turning to `CCN(CC)CCNC(=O)c1c(C)[nH]c(/C=C2\C(=O)Nc3ccc(F)cc32)c1C` [sunitinib, reference compound], in assay [1], the “response rate, distally disseminated visceral metastatic disease” value is reported as 9% and the “response rate, locoregionally growing superficial metastatic disease” value is reported as 20%. Also, the “experimental metastasis, especially in the lungs” value in assay [2] was “promotion of experimental metastasis, especially in the lungs”.
“CHHHRHSF [Vasculotide, 4-armed maleimide-functionalized polyethylene glycol (PEG) backbone to link together four cysteine-capped T7 peptides, that is, CHHHRHSF]”: the lung metastases response result in assay [3] is “did not respond to VT treatment”. Also, in assay [4], the “inflammatory induction of lung vascular hyperpermeability” value is given as “prevented inflammatory induction of lung vascular hyperpermeability”. For the same molecule, in the assay with Tie2, the Tie2 phosphorylation entry is “reportedly activates Tie2 phosphorylation”. In assay [5], the wound healing entry is “promoted wound healing”. Also, the intraperitoneal leukocyte influx entry in assay [6] is “reduced intraperitoneal leukocyte influx”.
